Measurements reported in publication PMC9822072, “Synthesis and Structure–Activity Relationship of 2,6-Disubstituted Thiosemicarbazone Derivatives of Pyridine as Potential Antituberculosis Agents” (Materials, 2023).
Values after ≈ are worked out from the molar mass of the structure shown. Where two headings read alike, the source gives them in different places.

Legend:
[1] = tested on: Bacillus cereus ATCC 10876; experiment: Antibacterial microdilution broth method; format: cell-based
Procedure: (§1) The antibacterial and antifungal activities of compounds 4–9 were screened by the microdilution broth method using Mueller–Hinton broth for the growth of bacteria and Mueller–Hinton broth with 2% glucose for the growth of fungi. The antimicrobial assays were carried out following a previous study. The MICs of the aforementioned derivatives were evaluated for the panel of reference microorganisms from the ATCC (American Type Culture Collection), including Gram-positive bacteria (Staphylococcus aureus ATCC 25923, Staphylococcus epidermidis ATCC 12228, Micrococcus luteus ATCC 10240, Bacillus subtilis ATCC 6633, and Bacillus cereus ATCC 10876), Gram-negative bacteria (Escherichia coli ATCC 25922, Proteus mirabilis ATCC 12453, Klebsiella pneumoniae ATCC 13883, and Pseudomonas aeruginosa ATCC 9027), and fungi (Candida albicans ATCC 102231 and Candida parapsilosis ATCC 22019) (LGC Standards, Teddington, Middlesex, UK). Vancomycin (VAN), ciprofloxacin (CIP), and fluconazole (FCZ) were used as standard drugs for comparison. Each experiment was performed in triplicate.

[2] = tested on: Bacillus subtilis ATCC 6633; experiment: Antibacterial microdilution broth method; format: cell-based
Procedure: as §1

[3] = tested on: Micrococcus luteus ATCC 10240; experiment: Antibacterial microdilution broth method; format: cell-based
Procedure: as §1

[4] = tested on: Staphylococcus aureus ATCC 25923; experiment: Antibacterial microdilution broth method; format: cell-based; conditions: for MIC: Staphylococcus aureus
Procedure: as §1

[5] = tested on: Staphylococcus epidermidis ATCC 12228; experiment: Antibacterial microdilution broth method; format: cell-based; conditions: for MIC: Staphylococcus epidermidis
Procedure: as §1

[6] = tested on: M. tuberculosis H37Rv (standard strain); experiment: Tuberculostatic activity, twofold serial microdilution with Alamar Blue; format: cell-based, Mycobacterium tuberculosis; conditions: 21 days at 37 °C; for MIC: Mycobacterium tuberculosis, H37RV, 504 h
[7] = tested on: Escherichia coli ATCC 25922; experiment: Antibacterial microdilution broth method; format: cell-based
Procedure: as §1

[8] = tested on: Klebsiella pneumoniae ATCC 13883; experiment: Antibacterial microdilution broth method; format: cell-based
Procedure: as §1

[9] = tested on: Proteus mirabilis ATCC 12453; experiment: Antibacterial microdilution broth method; format: cell-based
Procedure: as §1

[10] = tested on: Pseudomonas aeruginosa ATCC 9027; experiment: Antibacterial microdilution broth method; format: cell-based
Procedure: as §1

[11] = tested on: Candida albicans ATCC 102231; experiment: Antifungal microdilution broth method; format: cell-based; conditions: ATCC102231, Mueller–Hinton broth with 2% glucose, read-out: MIC C. albicans ATCC 102231
Procedure: as §1

[12] = tested on: Candida parapsilosis ATCC 22019; experiment: Antifungal microdilution broth method; format: cell-based; conditions: Lodderomyces parapsilosis, ATCC22019; Mueller–Hinton broth with 2% glucose; read-out: MIC C. parapsilosis ATCC 22019
Procedure: as §1

HaCaT cells [13] = experiment: Cytotoxic activity, MTT method; format: cell-based; conditions: Homo sapiens, 72 h, 3 days of incubation
HaCaT cells [14] = experiment: Cytotoxic activity, sulforhodamine B method; conditions: for IC50: Homo sapiens, 72 h, read-out: IC50-HaCaT SULF; for cytotoxicity against noncancer cells (in words): MTT and sulforhodamine B methods together
Gram-positive bacteria = experiment: Antibacterial microdilution broth method, summary in text; format: cell-based; conditions: read-out: MIC Gram-positive bacteria
Procedure: as §1

Mycobacterium strains = tested on: Mycobacterium strains; design: method as in PMID 32061963, PMID 36013649; conditions: cited from earlier work
[15] = tested on: other pathogenic microorganisms; design: method as in PMID 32061963, PMID 36013649; conditions: cited from earlier work
[16] = ATCC10876, Mueller–Hinton broth, read-out: MIC B. cereus ATCC 10876
[17] = ATCC6633, Mueller–Hinton broth, read-out: MIC B. subtilis ATCC 6633
[18] = ATCC10240, Mueller–Hinton broth, read-out: MIC M. luteus ATCC 10240
[19] = ATCC25923, Mueller–Hinton broth, read-out: MIC S. aureus ATCC 25923
[20] = ATCC12228, Mueller–Hinton broth, read-out: MIC S. epidermidis ATCC 12228
[21] = ATCC25922, Mueller–Hinton broth, read-out: MIC E. coli ATCC 25922
[22] = ATCC13883, Mueller–Hinton broth, read-out: MIC K. pneumoniae ATCC 13883
[23] = ATCC12453, Mueller–Hinton broth, read-out: MIC P. mirabilis ATCC 12453
[24] = ATCC9027, Mueller–Hinton broth, read-out: MIC P. aeruginosa ATCC 9027

Structure (SMILES)	MIC [1, 16] [µg/mL]	MIC [2, 17] [µg/mL]	MIC [3, 18] [µg/mL]	MIC [4, 19] [µg/mL]	MIC [5, 20] [µg/mL]	MIC [6] [µg/mL]	MIC [7, 21] [µg/mL]	MIC [8, 22] [µg/mL]	MIC [9, 23] [µg/mL]	MIC [10, 24] [µg/mL]	MIC [11] [µg/mL]	MIC [12] [µg/mL]	IC50 (HaCaT cells [13]) [µg/mL]	melting point [°C]	IC50 (HaCaT cells [14]) [µg/mL]	cytotoxicity against noncancer cells (in words) (HaCaT cells [14])	also measured
O=C(O)c1cn(C2CC2)c2cc(N3CCNCC3)c(F)cc2c1=O [CIP, ciprofloxacin, reference compound]	0.12 (≈ 0.362 µM)	0.03 (≈ 0.0905 µM)	0.98 (≈ 2.96 µM)	0.49 (≈ 1.48 µM)	0.49 (≈ 1.48 µM)												
NC(=NNC(=S)N1CCOCC1)c1cccc(N2CCCC2)n1 [Compound 4, N’-(Morpholine-4-Carbonothioyl)-6-(Pyrrolidin-1-Yl)Picolinohydrazonamide]	7.8 (≈ 23.3 µM)	7.8 (≈ 23.3 µM)	7.8 (≈ 23.3 µM)	3.9 (≈ 11.7 µM)	1.95 (≈ 5.83 µM)	16 (≈ 47.8 µM)	> 1000	> 1000	> 1000	> 1000	250 (≈ 747 µM)	> 1000	> 50	180 to 182	> 50	no cytotoxicity	
NC(=NNC(=S)N1CCCC1)c1cccc(N2CCCC2)n1 [Compound 5, 6-(Pyrrolidin-1-Yl)-N’-(Pyrrolidine-1-Carbonothioyl)Picolinohydrazonamide]	7.8 (≈ 24.5 µM)	0.49 (≈ 1.54 µM)	0.49 (≈ 1.54 µM)	0.49 (≈ 1.54 µM)	0.49 (≈ 1.54 µM)	2 (≈ 6.28 µM)	> 1000	> 1000	> 1000	> 1000	250 (≈ 785 µM)	1000 (≈ 3140 µM)	> 50	200 to 201	> 50	no cytotoxicity	MIC (Gram-positive bacteria): 0.49 µg/mL (≈ 1.54 µM)
NC(=NNC(=S)N1CCOCC1)c1cccc(N2CCCCC2)n1 [Compound 6, N’-(Morpholine-4-Carbonothioyl)-6-(Piperidin-1-Yl)Picolinohydrazonamide]	7.8 (≈ 22.4 µM)	7.8 (≈ 22.4 µM)	0.98 (≈ 2.81 µM)	1.95 (≈ 5.6 µM)	0.98 (≈ 2.81 µM)	8 (≈ 23 µM)	> 1000	> 1000	> 1000	> 1000	1000 (≈ 2870 µM)	1000 (≈ 2870 µM)	9.49 (≈ 27.2 µM)	177 to 178	> 50	inhibited cell metabolic activity while maintaining cell viability	
NC(=NNC(=S)N1CCCC1)c1cccc(N2CCCCC2)n1 [Compound 7, 6-(Piperidin-1-Yl)-N’-(Pyrrolidine-1-Carbonothioyl)Picolinohydrazonamide]	1.95 (≈ 5.87 µM)	1.95 (≈ 5.87 µM)	1.95 (≈ 5.87 µM)	0.49 (≈ 1.47 µM)	0.49 (≈ 1.47 µM)	2 (≈ 6.02 µM)	> 1000	> 1000	> 1000	> 1000	15.6 (≈ 46.9 µM)	7.8 (≈ 23.5 µM)	> 50	166 to 168	> 50	no cytotoxicity	MIC H37Rv [6]: 2 µg/mL (≈ 6.02 µM); MIC S. aureus ATCC 25923 ([4]; Mueller–Hinton broth): 0.49 µg/mL (≈ 1.47 µM); MIC S. epidermidis ATCC 12228 ([5]; Mueller–Hinton broth): 0.49 µg/mL (≈ 1.47 µM); MIC (Gram-positive bacteria): 0.49 µg/mL (≈ 1.47 µM)
NC(=NNC(=S)N1CCOCC1)c1cccc(Oc2ccccc2)n1 [Compound 8, N’-(Morpholine-4-Carbonothioyl)-6-Phenoxypicolinohydrazonamide]	> 1000	> 1000	125 (≈ 350 µM)	250 (≈ 699 µM)	31.3 (≈ 87.6 µM)	8 (≈ 22.4 µM)	> 1000	> 1000	> 1000	> 1000	> 1000	> 1000	0.57 (≈ 1.59 µM)	131 to 134	50 (≈ 140 µM)	inhibited cell metabolic activity while maintaining cell viability	
NC(=NNC(=S)N1CCCC1)c1cccc(Oc2ccccc2)n1 [Compound 9, 6-Phenoxy-N’-(Pyrrolidine-1-Carbonothioyl)Picolinohydrazonamide]	3.9 (≈ 11.4 µM)	0.49 (≈ 1.44 µM)	0.49 (≈ 1.44 µM)	0.98 (≈ 2.87 µM)	0.49 (≈ 1.44 µM)	8 (≈ 23.4 µM)	1000 (≈ 2930 µM)	> 1000	> 1000	1000 (≈ 2930 µM)	1000 (≈ 2930 µM)	1000 (≈ 2930 µM)	0.06 (≈ 0.176 µM)	170 to 173	1.31 (≈ 3.84 µM)	showed the same while losing cell viability	
OC(Cn1cncn1)(Cn1cncn1)c1ccc(F)cc1F [FCZ, fluconazole, reference compound]											0.98 (≈ 3.2 µM)	1.95 (≈ 6.37 µM)					
NNC(=O)c1ccncc1 [INH, isoniazid, reference compound]						0.125 (≈ 0.911 µM)											
N/C(=N\NC(=S)N1CCOCC1)c1cc(-c2ccccc2)ccn1 [MKG-1b]																	MIC toward Mycobacterium strains (Mycobacterium strains): 3.1 µg/mL (≈ 9.08 µM); MIC other pathogenic microorganisms [15]: 0.98 to 500 µg/mL
CN[C@H](CC(C)C)C(=O)N[C@H]1C(=O)N[C@@H](CC(N)=O)C(=O)N[C@H]2C(=O)N[C@H]3C(=O)N[C@H](C(=O)N[C@H](C(=O)O)c4cc(O)cc(O)c4-c4cc3ccc4O)[C@H](O)c3ccc(c(Cl)c3)Oc3cc2cc(c3O[C@@H]2O[C@H](CO)[C@@H](O)[C@H](O)[C@H]2O[C@H]2C[C@](C)(N)[C@H](O)[C@H](C)O2)Oc2ccc(cc2Cl)[C@H]1O [VAN, Vancomycin, reference compound]																	MIC ([1]; ATCC10876, read-out: MIC B. cereus ATCC 10876): 0.98 µg/mL (≈ 0.676 µM); MIC ([2]; ATCC6633, read-out: MIC B. subtilis ATCC 6633): 0.24 µg/mL (≈ 0.166 µM); MIC ([7]; ATCC25922, read-out: MIC E. coli ATCC 25922): 0.004 µg/mL (≈ 0.00276 µM); MIC ([8]; ATCC13883, read-out: MIC K. pneumoniae ATCC 13883): 0.06 µg/mL (≈ 0.0414 µM); MIC ([3]; ATCC10240, read-out: MIC M. luteus ATCC 10240): 0.12 µg/mL (≈ 0.0828 µM); MIC ([9]; ATCC12453, read-out: MIC P. mirabilis ATCC 12453): 0.03 µg/mL (≈ 0.0207 µM); MIC ([10]; ATCC9027, read-out: MIC P. aeruginosa ATCC 9027): 0.49 µg/mL (≈ 0.338 µM); MIC ([4]; ATCC25923, read-out: MIC S. aureus ATCC 25923): 0.98 µg/mL (≈ 0.676 µM); MIC ([5]; ATCC12228, read-out: MIC S. epidermidis ATCC 12228): 0.98 µg/mL (≈ 0.676 µM)
